The record followed here is PubChem BioAssay (NCI).

Where “and” joins values, the source holds several entries; their conditions need not be identical. Identical values can stand only once.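 In this assay, cells in 96-well plates receive the compound at five concentrations for 48 hours. Endpoints are linearly interpolated between the surrounding concentrations. The concentration for full growth arrest is given as TGI.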

One assay relates to RXF-631 renal. Kind of assay: growth of human tumour cells (NCI), 48 h.
In turn, `C=Cc1ccc(C)[n+](C[Si](C)(C)O[Si](C)(C)C)c1` returned a TGI of over 100 µM.
With `C[C@]12CCC(=O)C=C1CC[C@@H]1[C@@H]2CC[C@]2(C)C(=O)NC(=O)C[C@@H]12`, the TGI is over 100 µM.
Regarding `CCCCNc1nc(C#N)c(N)s1`, the TGI is over 100 µM.
Consider `COC(=O)N/N=C(\Cc1ccccc1)CN(C)C`, for which the TGI is over 100 µM.

The subject of another assay is BT-549 breast. Put plainly: growth of human tumour cells (NCI), 48 h.
`CC1=NN(C(=O)c2ccccc2O)C(=O)/C1=C/c1ccco1` yielded a TGI of over 100 µM.
Take `C=CCNC1=C2C[C@@H](C)C[C@@H](OC)[C@H](OC(=O)CCN)[C@H](C)/C=C(\C)[C@@H](OC(N)=O)[C@H](OC)/C=C\C=C(/C)C(=O)NC(=CC1=O)C2=O`: the TGI came out at 21.2 µM.
Compound `COC(=O)C1(CCC(C)=O)CCCCCC1=O` (stereo not drawn) returned a TGI of over 100 µM.
As for `COC(=O)c1ccc(C)cc1CC1Cc2cc(C)ccc2C1=O` (stereo not drawn), the TGI is over 100 µM.
Compound `C(=C\c1cccs1)/c1cccc(/C=C/c2cccs2)n1` had a TGI of over 100 µM.
Turning to `CC(CCN)(CCN)[N+](=O)[O-]`, the TGI was over 100 µM.
On the same count and under the same terms, under `NN(CC(=O)O)CC(=O)O` stands over 100 µM; under `CCOC(=O)c1cccn1S(=O)(=O)c1cc(Cl)ccc1NC(=O)CC`, over 100 µM.
`C=CCN1C(=O)C=C(c2ccccc2)n2ncc3cccc1c32` registered a TGI of over 100 µM.
`O=C([O-])C[n+]1ccccc1` yielded a TGI of over 100 µM.
On to `COc1ccc(-c2c(C#N)c(N)n(C3OCC(OC(C)=O)C(OC(C)=O)C3OC(C)=O)c(=S)c2C#N)cc1` (stereo not drawn), for which the TGI is 78.7 µM and 99 µM.
On to `CSc1nc(C#N)c(/N=C\N(C)C)n1C`, for which the TGI is over 100 µM.
Take `CN(C)CCCSc1nc2ccccc2[nH]1`: the TGI was over 100 µM.

A further assay has as its system DLD-1 colon. Put plainly: growth of human tumour cells (NCI), 48 h.
As to `O=c1[nH]c2cc([N+](=O)[O-])ccc2nc1/C(=N/Nc1ccccc1)C(O)c1ccccc1Cl` (stereo not drawn), the TGI is over 100 µM.
Regarding `C=Cc1ccc(C)[n+](C[Si](C)(C)O[Si](C)(C)C)c1`, the TGI was over 100 µM.
As for `C[C@]12CCC(=O)C=C1CC[C@@H]1[C@@H]2CC[C@]2(C)C(=O)NC(=O)C[C@@H]12`, the TGI was over 100 µM.
Still for that read-out and setting: under `COc1cc2c(oc(=O)c3c4oc([Si](C)(C)C)cc4cc(OC)c23)c2cccc(OCc3ccccc3)c12` stands over 100 µM; under `O=C(c1cccs1)N(C(=S)N1CCN(c2ccccn2)CC1)c1ccccc1`, over 100 µM; under `CNS(=O)(=O)NN(C)S(=O)(=O)c1ccccc1`, over 100 µM.
In the case of `CC(=O)OCC1=C(CCC#N)N2C(=O)C(NC(=O)Cc3cccs3)C2S(=O)C1` (stereo not drawn), the TGI was over 100 µM.
Compound `CCCCNc1nc(C#N)c(N)s1` came in with a TGI of over 100 µM.
Same read-out and setting: under `Cn1cc2ccccc2c1-c1nc(F)nc(F)n1` stands over 100 µM.
Compound `COC(=O)N/N=C(\Cc1ccccc1)CN(C)C` showed a TGI of over 100 µM.
As to `CC1=NN(C(=O)c2ccccc2O)C(=O)/C1=C/c1ccco1`, the TGI is over 100 µM.
Turning to `COc1ccc2c3c1O[C@]1(C)C34CCN(C)C(C2)C42C=C[C@@]1(OC)c1c(O)ccc(O)c12`, the TGI is over 100 µM.
Turning to `C[N+](C)(C)CC(=O)N/N=C/c1oc(-c2c(O)ccc3ccccc23)c(-c2c(O)ccc3ccccc23)c1[N+](=O)[O-]`, the TGI stood at 54.6 µM.
The same measure, in the same setting: the same measure for `C/C(CC(=O)Nc1ccc([N+](=O)[O-])cc1)=N\NC(N)=O`: over 100 µM; for `CCCCOC(=O)C1C2CCC(O2)C1C(=O)OCCCC` (stereo not drawn): over 87.5 µM.
`CC(=O)OC1COC(n2c(O)c(N=NC(N)=S)c3cc(Br)ccc32)C(OC(C)=O)C1OC(C)=O` (stereo not drawn) gave a TGI of over 100 µM.

The subject of the next assay is OVCAR-3 ovarian. Put plainly: growth of human tumour cells (NCI), 48 h.
Turning to `O=c1[nH]c2cc([N+](=O)[O-])ccc2nc1/C(=N/Nc1ccccc1)C(O)c1ccccc1Cl` (stereo not drawn), the TGI is over 100 µM.
For the compound `C=Cc1ccc(C)[n+](C[Si](C)(C)O[Si](C)(C)C)c1`, the TGI was over 100 µM.
For `C[C@]12CCC(=O)C=C1CC[C@@H]1[C@@H]2CC[C@]2(C)C(=O)NC(=O)C[C@@H]12`, the TGI is over 100 µM.
In the case of `COc1cc2c(oc(=O)c3c4oc([Si](C)(C)C)cc4cc(OC)c23)c2cccc(OCc3ccccc3)c12`, the TGI is over 77.9 µM.
`O=C(c1cccs1)N(C(=S)N1CCN(c2ccccn2)CC1)c1ccccc1` displayed a TGI of over 100 µM.
With `CC(=O)OCC1=C(CCC#N)N2C(=O)C(NC(=O)Cc3cccs3)C2S(=O)C1` (stereo not drawn), the TGI was over 100 µM.
The same measure, in the same setting: the same measure for `CCCCNc1nc(C#N)c(N)s1`: over 100 µM; for `Cn1cc2ccccc2c1-c1nc(F)nc(F)n1`: over 100 µM; for `COC(=O)N/N=C(\Cc1ccccc1)CN(C)C`: over 100 µM.
On to `CC1=NN(C(=O)c2ccccc2O)C(=O)/C1=C/c1ccco1`, for which the TGI was determined as 6.11 µM.
For the compound `COc1ccc2c3c1O[C@]1(C)C34CCN(C)C(C2)C42C=C[C@@]1(OC)c1c(O)ccc(O)c12`, the TGI was over 100 µM.
`C[N+](C)(C)CC(=O)N/N=C/c1oc(-c2c(O)ccc3ccccc23)c(-c2c(O)ccc3ccccc23)c1[N+](=O)[O-]`: the TGI was 44.2 µM.
For `COc1ccc(Nc2nnc(-c3nsc4ccccc34)s2)cc1`, the TGI is over 100 µM.
Compound `C=CCNC1=C2C[C@@H](C)C[C@@H](OC)[C@H](OC(=O)CCN)[C@H](C)/C=C(\C)[C@@H](OC(N)=O)[C@H](OC)/C=C\C=C(/C)C(=O)NC(=CC1=O)C2=O` yielded a TGI of 6.56 µM.
In turn, `COC(=O)C1(CCC(C)=O)CCCCCC1=O` (stereo not drawn) yielded a TGI of over 100 µM.
On the same count and under the same terms, the same measure for `COC(=O)c1ccc(C)cc1CC1Cc2cc(C)ccc2C1=O` (stereo not drawn): over 100 µM; for `C(=C\c1cccs1)/c1cccc(/C=C/c2cccs2)n1`: over 100 µM; for `CC(CCN)(CCN)[N+](=O)[O-]`: over 100 µM.
`C/C(CC(=O)Nc1ccc([N+](=O)[O-])cc1)=N\NC(N)=O` yielded a TGI of over 100 µM.
Compound `NN(CC(=O)O)CC(=O)O` showed a TGI of over 100 µM.
Compound `CCOC(=O)c1cccn1S(=O)(=O)c1cc(Cl)ccc1NC(=O)CC` displayed a TGI of over 100 µM.
On the same count and under the same terms, the same measure for `CCCCOC(=O)C1C2CCC(O2)C1C(=O)OCCCC` (stereo not drawn): over 100 µM; for `C=CCN1C(=O)C=C(c2ccccc2)n2ncc3cccc1c32`: over 100 µM; for `O=C([O-])C[n+]1ccccc1`: over 100 µM.
The same measure, in the same setting: the same measure for `CC(=O)OC1COC(n2c(O)c(N=NC(N)=S)c3cc(Br)ccc32)C(OC(C)=O)C1OC(C)=O` (stereo not drawn): over 100 µM; for `COc1ccc(-c2c(C#N)c(N)n(C3OCC(OC(C)=O)C(OC(C)=O)C3OC(C)=O)c(=S)c2C#N)cc1` (stereo not drawn): over 100 µM.
On to `CSc1nc(C#N)c(/N=C\N(C)C)n1C`, for which the TGI is over 100 µM.
`CN(C)CCCSc1nc2ccccc2[nH]1` came in with a TGI of over 100 µM.

Another assay relates to XF 498 CNS. Put plainly: growth of human tumour cells (NCI), 48 h.
`O=c1[nH]c2cc([N+](=O)[O-])ccc2nc1/C(=N/Nc1ccccc1)C(O)c1ccccc1Cl` (stereo not drawn) showed a TGI of over 100 µM.
Regarding `C[C@]12CCC(=O)C=C1CC[C@@H]1[C@@H]2CC[C@]2(C)C(=O)NC(=O)C[C@@H]12`, the TGI was over 100 µM.
